Experimental data reported in the NIST ThermoML archive (doi:10.1016/j.jct.2006.10.008).

How the values were obtained:
[1] = excess molar enthalpy (molar enthalpy of mixing); xn = mol fraction of the nth substance listed; details: 298.15 K, 101 kPa, Liquid, Calvet calorimetry
[2] = xn = mol fraction of the nth substance listed; details: 298.15 K, 101 kPa, Liquid

ClCCCCCl [1,4-dichlorobutane] + CCOC=O
Details | excess molar enthalpy, [1] [kcal/mol] | mass density, [2] [kg/m3]
x2 = 0.0774 | – | 1120.56
x2 = 0.083 | 0.0262 | –
x2 = 0.1549 | – | 1107.96
x2 = 0.1706 | 0.042 | –
x2 = 0.229 | – | 1095.35
x2 = 0.256 | 0.0527 | –
x2 = 0.2982 | – | 1083.08
x2 = 0.3368 | 0.0584 | –
x2 = 0.3653 | – | 1070.71
x2 = 0.4094 | 0.0582 | –
x2 = 0.4302 | – | 1058.33
x2 = 0.473 | 0.055 | –
x2 = 0.4921 | – | 1046.05
x2 = 0.5279 | 0.0505 | –
x2 = 0.5517 | – | 1033.83
x2 = 0.5977 | 0.0395 | –
x2 = 0.6131 | – | 1020.82
x2 = 0.6452 | 0.034 | –
x2 = 0.6683 | – | 1008.67
x2 = 0.6966 | 0.025 | –
x2 = 0.7211 | – | 996.7
x2 = 0.7477 | 0.0167 | –
x2 = 0.7717 | – | 984.84
x2 = 0.803 | 0.0108 | –
x2 = 0.8212 | – | 973.13
x2 = 0.8543 | 0.00633 | –
x2 = 0.8674 | – | 961.66
x2 = 0.907 | 0.00373 | –
x2 = 0.9134 | – | 949.8
x2 = 0.9569 | 0.00222 | 938.37

ClCCCCCCCl [1,6-dichlorohexane] + CCOC=O
Details | excess molar enthalpy [kcal/mol] | mass density [kg/m3]
[1], x2 = 0.102 | 0.0409 | –
[1], x2 = 0.205 | 0.0712 | –
[1], x2 = 0.2968 | 0.09352 | –
[1], x2 = 0.3852 | 0.1054 | –
[1], x2 = 0.4641 | 0.1101 | –
[1], x2 = 0.5316 | 0.1113 | –
[1], x2 = 0.5845 | 0.1095 | –
[1], x2 = 0.6442 | 0.1042 | –
[1], x2 = 0.6907 | 0.09704 | –
[1], x2 = 0.7399 | 0.08726 | –
[1], x2 = 0.7869 | 0.0732 | –
[1], x2 = 0.8348 | 0.0598 | –
[1], x2 = 0.8829 | 0.0418 | –
[1], x2 = 0.9248 | 0.0285 | –
[1], x2 = 0.9656 | 0.0148 | –
[2], x2 = 0.0997 | – | 1055.27
[2], x2 = 0.196 | – | 1046.53
[2], x2 = 0.28 | – | 1038.19
[2], x2 = 0.3577 | – | 1029.9
[2], x2 = 0.4304 | – | 1021.49
[2], x2 = 0.4965 | – | 1013.36
[2], x2 = 0.558 | – | 1005.21
[2], x2 = 0.6159 | – | 997.06
[2], x2 = 0.67 | – | 988.91
[2], x2 = 0.7203 | – | 980.91
[2], x2 = 0.7675 | – | 973
[2], x2 = 0.8114 | – | 965.17
[2], x2 = 0.8538 | – | 957.24
[2], x2 = 0.893 | – | 949.58
[2], x2 = 0.9301 | – | 941.93
[2], x2 = 0.9649 | – | 934.51

CCCCOC=O [butyl methanoate] + ClCCCl
Details | excess molar enthalpy [kcal/mol] | mass density [kg/m3]
[1], x1 = 0.0414 | -0.00954 | –
[1], x1 = 0.0923 | -0.0212 | –
[1], x1 = 0.1436 | -0.0343 | –
[1], x1 = 0.1984 | -0.0481 | –
[1], x1 = 0.2527 | -0.0619 | –
[1], x1 = 0.3048 | -0.075 | –
[1], x1 = 0.3561 | -0.08504 | –
[1], x1 = 0.4041 | -0.09405 | –
[1], x1 = 0.4493 | -0.1003 | –
[1], x1 = 0.4629 | -0.1006 | –
[1], x1 = 0.5202 | -0.1025 | –
[1], x1 = 0.5856 | -0.1005 | –
[1], x1 = 0.6594 | -0.09278 | –
[1], x1 = 0.7406 | -0.0785 | –
[1], x1 = 0.829 | -0.0569 | –
[1], x1 = 0.9165 | -0.0319 | –
[2], x1 = 0.0446 | – | 1222.63
[2], x1 = 0.087 | – | 1201.85
[2], x1 = 0.1314 | – | 1180.87
[2], x1 = 0.1786 | – | 1159.63
[2], x1 = 0.2266 | – | 1138.77
[2], x1 = 0.277 | – | 1117.89
[2], x1 = 0.3837 | – | 1076.58
[2], x1 = 0.4403 | – | 1056.07
[2], x1 = 0.5 | – | 1035.47
[2], x1 = 0.5622 | – | 1014.9
[2], x1 = 0.6248 | – | 995.09
[2], x1 = 0.6931 | – | 974.48
[2], x1 = 0.7645 | – | 953.92
[2], x1 = 0.8389 | – | 933.51

ClCCCCCCCl [1,6-dichlorohexane] + COC=O
Details | excess molar enthalpy [kcal/mol] | mass density [kg/m3]
[1], x2 = 0.0953 | 0.058 | –
[1], x2 = 0.2199 | 0.1098 | –
[1], x2 = 0.3324 | 0.1456 | –
[1], x2 = 0.4307 | 0.1664 | –
[1], x2 = 0.5033 | 0.1742 | –
[1], x2 = 0.5596 | 0.1754 | –
[1], x2 = 0.5977 | 0.1763 | –
[1], x2 = 0.6601 | 0.173 | –
[1], x2 = 0.7167 | 0.1668 | –
[1], x2 = 0.7749 | 0.1558 | –
[1], x2 = 0.8296 | 0.1374 | –
[1], x2 = 0.8855 | 0.113 | –
[1], x2 = 0.935 | 0.0781 | –
[1], x2 = 0.974 | 0.0416 | –
[2], x2 = 0.1205 | – | 1057.33
[2], x2 = 0.2277 | – | 1050.93
[2], x2 = 0.3234 | – | 1044.52
[2], x2 = 0.4146 | – | 1037.85
[2], x2 = 0.4858 | – | 1032.03
[2], x2 = 0.555 | – | 1025.73
[2], x2 = 0.6169 | – | 1019.68
[2], x2 = 0.6713 | – | 1013.87
[2], x2 = 0.7244 | – | 1007.71
[2], x2 = 0.7696 | – | 1002.16
[2], x2 = 0.811 | – | 996.6
[2], x2 = 0.8479 | – | 991.36
[2], x2 = 0.8838 | – | 986.03
[2], x2 = 0.9163 | – | 980.96
[2], x2 = 0.9461 | – | 976
[2], x2 = 0.9737 | – | 970.7
